According to patent publication US5102891A, “1-(substituted pyridinylamino)-1H-indol-5-yl substituted carbamates” (priority 1990, dated 1992):
Where two headings read alike, the source gives them in different places.

Assays:
[1] = test system: Scopolamine Induced Memory Deficit; format: in vivo, mice
Experimental: In this assay mice are tested for their ability to remember an unpleasant stimulus for a period of 24 hours. A mouse is placed in a chamber that contains a dark compartment; a strong incandescent light drives it to the dark compartment, where an electric shock is administered through metal plates on the floor. The animal is removed from the testing apparatus and tested again, 24 hours later, for the ability to remember the electric shock.
If scopolamine, an anticholinergic that is known to cause memory impairment, is administered before an animal's initial exposure to the test chamber, the animal re-enters the dark compartment shortly after being placed in the test chamber 24 hours later. This effect of scopolamine is blocked by an active test compound, resulting in a greater interval before re-entry into the dark compartment.
The results for an active compound are expressed as the percent of a group of animals in which the effect of scopolamine is blocked, as manifested by an increased interval between being placed in the test chamber and re-entering the dark compartment.

[2] = target: T1, Acetylcholinesterase (AChE) (Rattus norvegicus, UniProt P37136); test: biochemical; conditions: rat striatum homogenate, 10 min preincubation at 37° C., pH 7.2, acetylthiocholine 5 mM final; read-out: Inhibitory Concentration Brain AChE
T1 construct: corpora striata dissected free, weighed and homogenized in 19 volumes; from tissue; host or cells: corpora striata of male Wistar rats, whole homogenate
T1 sequence (P37136 32-614): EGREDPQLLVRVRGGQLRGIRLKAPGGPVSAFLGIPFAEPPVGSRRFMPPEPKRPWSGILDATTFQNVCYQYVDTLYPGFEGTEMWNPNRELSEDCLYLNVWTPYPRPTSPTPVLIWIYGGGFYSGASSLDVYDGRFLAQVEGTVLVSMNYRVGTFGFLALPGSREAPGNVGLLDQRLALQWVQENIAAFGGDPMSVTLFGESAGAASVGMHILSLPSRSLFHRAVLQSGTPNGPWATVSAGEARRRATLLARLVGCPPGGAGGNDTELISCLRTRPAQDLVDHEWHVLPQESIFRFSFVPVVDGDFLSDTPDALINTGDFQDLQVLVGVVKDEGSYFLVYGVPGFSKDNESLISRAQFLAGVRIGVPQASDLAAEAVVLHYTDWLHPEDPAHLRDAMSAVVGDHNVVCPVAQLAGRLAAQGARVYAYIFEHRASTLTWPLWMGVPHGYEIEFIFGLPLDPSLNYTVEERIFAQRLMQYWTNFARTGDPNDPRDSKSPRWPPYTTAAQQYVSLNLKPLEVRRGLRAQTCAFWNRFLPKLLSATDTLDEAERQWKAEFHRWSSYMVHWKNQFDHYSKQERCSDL
Experimental: Cholinesterases are found throughout the body, both in the brain and in serum. However, only brain acetylcholinesterase (AChE) distribution is correlated with central cholinergic innervation.
The method described below was used in this invention for assaying cholinesterase activity.
1. 0.05M Phosphate buffer, pH 7.2
(c) add (a) to (b) until pH reaches 7.2
4. A 2 mM stock solution of the test drug is made up in a suitable solvent and q.s. to volume with 0.5 mM DTNB (reagent 3). Drugs are serially diluted (1:10) such that the final concentration (in cuvette) is 10^-4 M and screened for activity. If active, IC50 values are determined from the inhibitory activity of subsequent concentrations.
Male Wistar rats are decapitated, brains rapidly removed, corpora striata dissected free, weighed and homogenized in 19 volumes (approximately 7 mg protein/ml) of 0.05M phosphate buffer, pH 7.2 using a Potter-Elvehjem homogenizer. […]
Enzyme activity is measured with the Beckman DU-50 spectrophotometer. […]
Blank values are determined for each run to control for non-enzymatic hydrolysis of substrate and these values are automatically subtracted by the kindata program available on kinetics soft-pac module. This program also calculates the rate of absorbance change for each cuvette. […]

Q: For CC[C@@H]1C(=O)OC[C@@H]1Cc1cncn1C [Pilocarpine], which “% of Animals with Scopolamine Induced Memory Deficit Reversal” value ([1]; mice, 5.0 mg/kg of body weight, s.c., retest 24 hours) is on record?
A: 13%

Q: For CCCN(c1ccncc1)n1ccc2cc(OC(=O)N[C@@H](C)c3ccccc3)ccc21 [(S)-(-)-1-(Propyl-4-pyridinylamino)-1H-indol-5-yl 1-phenylethylcarbamate], which IC50 [2] is on record?
A: 30.2 µM

Q: Which “% of Animals with Scopolamine Induced Memory Deficit Reversal” value ([1]; mouse, in vivo, sc, 0.63 mg/kg) does the source give for Nc1c2c(nc3ccccc13)CCCC2 [Tacrine] here?
A: 13%

Q: What does the source list for CCCN(c1ccncc1)n1ccc2cc(OC(=O)NC)ccc21 [1-(Propyl-4-pyridinylamino)-1H-indol-5-yl methylcarbamate]?
A: % of Animals with Scopolamine Induced Memory Deficit Reversal ([1]; mice, 0.35 mg/kg of body weight, s.c., retest 24 hours): 21%; IC50 [2]: 0.0023 µM
